Experimental data published in patent US20040171594A1, “Use of bis-acid(5-androsten-17-one-3beta-hydroxyl)diester for manufacture pharmaceuticals” (priority 2001, published 2004).
Marks after values point to notes of the source that are not given here.

Tests used:
[1] = system: osteoporosis model of rats induced by Retinoic acid; test: Osteoporosis model of rats induced by Retinoic acid; type: in vivo, SD rats; conditions: Retinoic acid 70 mg/kg, specimen orally 30 days (dose not given), right thighbone, n=8
From the text: After continuously administering specimen for 30 days, killed rats and took right thighbone of rat.
Took same part tissue of right thighbone, routinely decalcified, enveloped with olefin, and dyed with HE. Observed with ordinary optics microscope, import all imagines into computer with A/D conversion of pickup camera, via dealing with image analysis software obtained index of guide line as follows: relative bone volume, indicating percentage that bone trabecula accounted for medullary cavity, 1.25×10×4 times; average width of bone trabecula, 1.25×10×10 times; amount of cell per area in bone trabecula, gathering same area image (640×480) of bone trabecula with image analysis software, calculating amount of bone cell in corresponding area, 1.25×10×40 times; Average length of bone cell lacuna, 1.25×10×40; Average width of bone cell lacuna, 1.25×10×40. The above five indexes of static state guide-line were all observed for ten eyeshots, calculating their average value.

[2] = system: arrhythmia of rats induced by Aconitine; test: Arrhythmia of rats induced by Aconitine; type: in vivo, SD rats
Experimental: Male SD rats, weighing (218.3±20.0) g, were anaesthetized with urethane 1.2 g/kg body weight by abdominal injection, continuously monitored by II lead electrocardiogram (ECG) by MS302 Biological Signal Record and Analysis System. After ten minutes of being administered drug or 0.5% CMC-Na through sublingual vein, rats were injected with Aconitine in external jugular vein at 2.5 μg/min speed, recorded the dose at appearance time of ventricular premature beat (VP), ventricular tachycardia (VT), ventricular fibrillation (VF) and cardiac arrest (CA), respectively. And t test was performed. […] The effect of compounds Ca Do E at 0.5 mg/kg dose were remarkably better than that of Prasterone and Arniodarone.

[3] = system: acute renal failure of mice induced by endotoxin; test: Acute renal failure model induced by endotoxin; type: in vivo, NIH mice; conditions: drug 10 mg/kg i.p., endotoxin 0.06 g/kg, after five hours, n=10; for GSH-Px: mice kidney homogenate; for BUN / Cr: mice serum
Experimental: After five hours, blood of the mice was collected by removing eyes, assayed Blood Urea Nitrogen (BUN) and Creatinine (Cr) concentration of serum. One kidney of each […] was taken out and made 100 mL/L homogenate, assayed activity of Glutathione Peroxidase (GSH-Px) enzyme.

[4] = system: cerebral ischemia-reperfusion injury of mice; test: Memory step-through test after cerebral ischemia-reperfusion injury; type: in vivo, NIH mice; conditions: 4.5 mg/kg intragastric once a day for 10 days, n=10
Experimental: After weighed, NIH mice were anaesthetized with Penbotarbital 60 mg/kg, then performed operation. Fixed at supine position, the skin in the middle of the deck was dissected about 7 mm. Separated common carotid artery of two sides of neck, surrounded with the thread of No “0”. Common carotid artery of two sides was chipped with artery clip for 2 minutes to induce cerebral ischemia. In the end of ischemia treatment, artery clip was loosed and blood perfusion was restored, rest for five minutes, repeated twice as that. After blocking blood flow of carotid, sutured incision. Recorded trail bloodletting, bloodletting quantity was no more than 10% of total blood quantity. After operation, […] were administered with proper physiological saline through intraperitoneal injection in order to supple capacity of blood. After pseudo operation group was anaesthetized, carotid of two sides was separated but blood flow was not blocked, without being bloodletting too.
In experiment appearance of body temperature lowering and righting reflex disappearing was as positive guide-line of ischemia, discarding those without typical guide line of ischemia. In the procedure of ischemia or after operation, some of animals would be dead. […] According to the dose of Table 7, animals were administered with medicine by intragastric intubation once a day, and continue administered drug for 10 days. After 10 days, memory test was performed.

[5] = system: myocardium injury model of rats induced by ISO; test: Myocardium injury (myocardial ischemia) model of rats induced by ISO; type: in vivo, SD rats; conditions: drug 0.76 mg/kg, n=8; for Σ ST: rats, ISO s.c.
Experimental: SD rats were measured ECG by chest leads before experiment, abandoned those of abnormal or arrhythmia at T wave, ST sect. […] They were divided into four groups according to Table 4, eight rats in each group. As dose of Table 4, tested compounds or 0.5% CMC-Na solution with same volume were administered through duodenum for 30 minutes, rats were anaesthetized with aether. After ECG was recorded, Isoproterenol (ISO) was administered by subcutaneous injection from the back, recorded ECG again after 30 minutes. After specimen was intragastricly granted for 24 hours and 48 hours, every group was administered simples again and recorded ECG again in terms of the methods stated above. After 72 hours, bleeding from the ophthalmic venous plexus and separated blood serum through centrifugation. Killed the rats, scissor the tip of the heart to prepare 10% myocardial tissue homogenate with 4° C. physiological saline as standby.
Measured each rat's value of ST before first administering ISO. And after first, second and third subcutaneous injection for 30 minutes, calculated mv mean value of ΣST as guide line of myocardium injury and performed t test.
The changes of MDA LDH and CK in serum were measured with agent kits.
The changes of MDA, LDH and CK in serum and myocardial tissue homogenate were measured with agent kits.

[6] = system: thymus and spleen of mice; test: Indexes of thymus and spleen of mice injected with cyclophosphamide; type: in vivo, NIH mice; conditions: cyclophosphamide 60 mg/kg i.p., drug 10 mg/kg intragastric for 30 days, n=10
Experimental: Chose 90 healthy NIH mice, weighing (18˜22)g, equal amount of male and female. Every mouse was injected with cyclophos phamide (60 mg/kg, intraperitoneally). […] Administered specimen through intragastric intubation in terms of the dose in Table 8. Continuously administered orally specimen for 30 days, all mice fasted on the 30th day, but were supplied with water. On the 31th day, mice of every group were killed. Weighed their body, thymus and spleen, calculated index of thymus and spleen, compared the difference among each group.

[7] = system: arrhythmia of guinea pigs induced by Ouabain; test: Arrhythmia of guinea pigs induced by Ouabain; type: in vivo; conditions: n=8
Experimental: Chose 40 male guinea pigs, weighing (288.8±38.3) g, randomly divided into six groups, anaesthetized with urethane 1.2 g/kg by abdominal injection. Ten minutes after administered drug or 0.5% CMC-Na, the guinea pigs were injected Ouabain into external jugular vein at 3 μg/min speed, recorded ECG respectively, measured the dose at appearance time of VP, VT, VF and CA, and performed t test.

[8] = rats, drug 0.5 mg/kg sublingual vein 10 min before Aconitine 2.5 μg/min, n=10
[9] = myocardial tissue homogenate of rats with ISO myocardium injury
[10] = serum of rats with ISO myocardium injury, after 72 hours
[11] = drug 4.5 mg/kg 10 min before Ouabain 3 μg/min
[12] = drug 2.5 mg/kg 10 min before Ouabain 3 μg/min

Compound | Amount of cell per area in bone trabecula [1] | Average width of bone trabecula [1] [μm] | GSH-Px [3] [nU · L^−1] | BUN [3] | Latency of dark cabin, Memory [4] [s] | Latency of dark cabin, Study [4] [s] | Number of error [4] [n] | Activity of CK [5, 9] [U/L] | Activity of LDH [5, 9] [U/L] | MDA [5, 9] [nmol/g] | Σ ST ([5]; 30 min) [mv] | Σ ST ([5]; 24 h) [mv] | Σ ST ([5]; 48 h) [mv] | Σ ST ([5]; 72 h) [mv] | Activity of CK [5, 10] [U/L] | Activity of LDH [5, 10] [U/L] | MDA [5, 10] [nmol/mL] | Relative bone volume [1] [%] | Dose of Aconitine required to induce CA ([2]; {}) [mg/kg] | Dose of Aconitine required to induce VF ([2]; {}) [mg/kg] | further results
C[C@]12CC[C@H](OC(=O)CC(=O)O[C@H]3CC[C@@]4(C)C(=CC[C@@H]5[C@@H]4CC[C@]4(C)C(=O)CC[C@@H]54)C3)CC1=CC[C@@H]1[C@@H]2CC[C@]2(C)C(=O)CC[C@@H]12 [Compound C, malonic acid-(5-androsten-17-one-3β-ol)-diester] | 19.50 ± 5.54 | 72.69 ± 10.38 | 29.8 ± 11.6 | 387.0 ± 40.2*** 10 mg · L^−1 | 58.1 ± 16.2 | 24.4 ± 17.3 | 2.5 ± 1.5 | 186.55 ± 26.25 | 201.33 ± 25.24 | 121.67 ± 15.24 | 0.64 ± 0.21 | 0.52 ± 0.11 | 0.50 ± 0.14 | 0.52 ± 0.12 | 262.50 ± 35.41 | 270.13 ± 27.46 | 28.29 ± 6.56 | – | – | – | Dose of Aconitine required to induce CA [2, 8]: 0.1865 ± 0.0317 mg/kg; Dose of Aconitine required to induce VF [2, 8]: 0.1528 ± 0.0393 mg/kg; Dose of Aconitine required to induce VP [2, 8]: 0.098 ± 0.0291 mg/kg; Dose of Aconitine required to induce VT [2, 8]: 0.1189 ± 0.0353 mg/kg
CC12CCC3C(CC=C4CC(OC(=O)CCC(=O)OC5CCC6(C)C(=CCC7C8CCC(=O)C8(C)CCC76)C5)CCC43C)C1CCC2=O (stereo not drawn) [Compound D, succinic acid-(5-androsten-17-one-3β-ol)-diester] | 20.70 ± 5.27 | 70.76 ± 8.56 | 38.4 ± 15.0 | 295.5 ± 36.0*** 10 mg · L^−1 | 67.4 ± 19.7 | 37.3 ± 15.1 | 1.2 ± 1.0 | 270.41 ± 34.31 | 292.27 ± 29.44 | 78.43 ± 7.51 | 0.42 ± 0.20 | 0.47 ± 0.13 | 0.42 ± 0.08 | 0.40 ± 0.10 | 229.27 ± 31.32 | 218.55 ± 37.35 | 18.15 ± 4.52 | 41.55 ± 4.38 | 0.204 ± 0.028 | 0.1864 ± 0.0302 | Index of spleen [6]: 103.47 ± 13.40 mg/10 g body weight; Index of thymus [6]: 25.59 ± 3.70 mg/10 g body weight; Dose of Aconitine required to induce VP ([2]; {}): 0.1224 ± 0.0205 mg/kg; Dose of Aconitine required to induce VT ([2]; {}): 0.1378 ± 0.0244 mg/kg; Cr [3]: 29.31 ± 7.94*** 10 mg · L^−1
C[C@]12CC[C@H](O)CC1=CC[C@@H]1[C@@H]2CC[C@]2(C)C(=O)CC[C@@H]12 [Parsterone, Prasterone, reference compound] | – | – | – | – | – | – | – | – | – | – | – | – | – | – | – | – | – | – | 0.1645 ± 0.0271 | 0.1327 ± 0.0244 | Dose of Aconitine required to induce VP ([2]; {}): 0.0935 ± 0.019 mg/kg; Dose of Aconitine required to induce VT ([2]; {}): 0.11 ± 0.0161 mg/kg; Dose of Oua at appearance of CA [7, 11]: 0.1955 ± 0.033 mg/kg; Dose of Oua at appearance of VF [7, 11]: 0.1654 ± 0.0264 mg/kg; Dose of Oua at appearance of VP [7, 11]: 0.0893 ± 0.0155 mg/kg; Dose of Oua at appearance of VT [7, 11]: 0.1316 ± 0.0246 mg/kg
C=C1/C(=C\C=C2/CCC[C@]3(C)[C@@H]([C@H](C)CCCC(C)(C)O)CC[C@@H]23)C[C@@H](O)C[C@@H]1O [Rocaltrol, reference compound] | 19.27 ± 3.89 | 67.16 ± 13.11 | – | – | – | – | – | – | – | – | – | – | – | – | – | – | – | 36.72 ± 7.82 | – | – | –
propanediol-disulphonic acid-(5-androsten-17-one-3β-ol)-diester [Compound H] | 35.69 ± 3.70 | 60.84 ± 4.81 | 35.6 ± 10.7 | 366.0 ± 30.2*** 10 mg · L^−1 | 56.0 ± 17.2 | 26.2 ± 15.2 | 3.0 ± 1.5 | 230.15 ± 53.46 | – | 105.52 ± 14.64 | 0.53 ± 0.11 | 0.50 ± 0.10 | 0.52 ± 0.04 | 0.51 ± 0.12 | 261.24 ± 24.27 | 253.24 ± 31.55 | 21.17 ± 3.36 | – | – | – | Dose of Oua at appearance of CA [7, 12]: 0.2232 ± 0.0307 mg/kg; Dose of Oua at appearance of VF [7, 12]: 0.1981 ± 0.0415 mg/kg; Dose of Oua at appearance of VP [7, 12]: 0.116 ± 0.037 mg/kg; Dose of Oua at appearance of VT [7, 12]: 0.1402 ± 0.0356 mg/kg; Cr [3]: 35.78 ± 7.26*** 10 mg · L^−1
